Patent US8853230B2, “Inhibitors of JAK” (Portola Pharmaceuticals, Inc., priority 2009, dated 2014)

Assays:
Type in all cases: biochemical
[1] = target: T1, JAK1 (Homo sapiens, UniProt P23458); assay: Z'-LYTE kinase assay, JAK1 tyrosine phosphorylation activity; conditions: read-out: JAK 1 IC50
T1 construct: 5 μl of catalytic domain recombinant Kinase enzyme+Tyr peptide substrate (Invitrogen, Calif.); purchased Invitrogen
Experimental: (§1) JAK and TYK2 tyrosine phosphorylation activity is measured using the Z′-LYTE™ Technology developed by Invitrogen Corporation (Carlsbad, Calif.). For JAK1, JAK2 and JAK3 the Z′-LYTE™ Kinase Assay Kit-Tyr6 Peptide (part number PV4122) was used. For TYK2 the Z′-LYTE™ Kinase Assay Kit-Tyr6 Peptide (part number PV3192) was used. The Z′-LYTE™ biochemical assay employs a fluorescence resonance energy transfer (FRET) coupled-enzyme format and is based on the differential sensitivity of phosphorylated and non-phosphorylated peptides to proteolitic cleavage. The assay uses a synthetic peptide substrate that is labelled with a donor fluorophore (coumarin) and an acceptor fluorophore (fluorescein) that make up a FRET pair. In the primary reaction (the Kinase Reaction), the kinase transfers the γ-phosphate of ATP to a single tyrosine residue on the substrate, while the presence of a kinase inhibitor in the primary reaction suppresses phosphorylation. In the secondary reaction (the Development Reaction), a site-specific protease (the Development Reagent) is added. The development buffer quenches the Kinase Reaction, while the protease recognizes and cleaves non-phosphorylated Z′-LYTE™ peptide substrate. Cleavage disrupts FRET between the donor and acceptor fluorophores on the non-phosphoryleted substrate, while uncleaved, phosphorylated substrate maintains FRET.
(§2) To test the ability of candidate molecules to inhibit JAK tyrosine phosphorylation activity, molecules are reconstituted in 100% DMSO and serially diluted 1:10 in polypropylene v-bottom microtiter plates. The candidate molecules are then diluted 1:25 into kinase buffer and 2.5 μl transferred into duplicate wells of a 384 well low volume black microtiter assay plate (Corning, USA). The final DMSO concentration in the assay is 1%. The kinase reaction contains 2.5 μl of a candidate molecule, 5 μl of catalytic domain recombinant Kinase enzyme+Tyr peptide substrate (Invitrogen, Calif.) and 2.5 μl ATP (Invitrogen, Calif.). The kinase reaction is allowed to procede for 1 hour at room temperature. The protease reaction is initiated by the addition of 5 μl Development Reagent (Invitrogen, Calif.). After 1 hour incubation at room temperature the fluorescence is measured using a FlexStation plate reader (Molecular Devices, Sunnyvale, Calif.). The reader settings used are as follows: Fluorescence mode, endpoint, top read, excitation 400 nm, emission 445 nm and 520 nm, Auto Cutoff 435 nm and 515 nm, PMT sensitivity high, 6 reads per well. Inhibition of JAK activity is calculated as the percent phosphorylation of substrate in the presence of inhibitor compared to the percent phosphorylation of substrate in the absence of inhibitor. IC50's were derived using Xlfit 4.3 (IDBS, UK), 4 parameter logistic model 205: Y=(A+((B−A)/(1+((C/x)^D)))).

[2] = target: T2, JAK3 (Homo sapiens, UniProt P52333); assay: Z'-LYTE kinase assay, JAK3 tyrosine phosphorylation activity
T2 construct: 5 μl of catalytic domain recombinant Kinase enzyme+Tyr peptide substrate (Invitrogen, Calif.); purchased Invitrogen
Experimental: as §1, §2

[3] = target: T3, TYK2 (Homo sapiens, UniProt P29597); assay: Z'-LYTE kinase assay, TYK2 tyrosine phosphorylation activity
T3 construct: 5 μl of catalytic domain recombinant Kinase enzyme+Tyr peptide substrate (Invitrogen, Calif.); purchased Invitrogen
T3 sequence (P29597 897-1176 limits assumed): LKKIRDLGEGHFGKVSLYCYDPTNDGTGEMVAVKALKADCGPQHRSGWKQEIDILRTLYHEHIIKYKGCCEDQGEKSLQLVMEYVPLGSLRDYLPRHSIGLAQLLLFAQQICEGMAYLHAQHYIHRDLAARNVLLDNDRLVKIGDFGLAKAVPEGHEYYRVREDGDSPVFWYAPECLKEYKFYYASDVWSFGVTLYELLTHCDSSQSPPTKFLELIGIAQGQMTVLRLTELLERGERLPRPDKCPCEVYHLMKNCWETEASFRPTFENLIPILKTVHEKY
Experimental: as §1, §2

[4] = target: T4, JAK2 (Homo sapiens, UniProt O60674); assay: Z'-LYTE kinase assay, JAK2 tyrosine phosphorylation activity
T4 construct: 5 μl of catalytic domain recombinant Kinase enzyme+Tyr peptide substrate (Invitrogen, Calif.); purchased Invitrogen
Experimental: as §1, §2

T1 sequence (P23458 875-1153 limits assumed): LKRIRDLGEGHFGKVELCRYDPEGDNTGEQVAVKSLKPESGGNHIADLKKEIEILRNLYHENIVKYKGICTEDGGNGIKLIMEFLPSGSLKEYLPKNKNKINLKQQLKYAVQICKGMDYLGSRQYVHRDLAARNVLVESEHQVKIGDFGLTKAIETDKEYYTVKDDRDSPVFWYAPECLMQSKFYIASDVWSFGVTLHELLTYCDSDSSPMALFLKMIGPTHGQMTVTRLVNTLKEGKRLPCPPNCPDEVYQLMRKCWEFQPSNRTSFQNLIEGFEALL
T4 sequence (O60674 849-1124 limits assumed): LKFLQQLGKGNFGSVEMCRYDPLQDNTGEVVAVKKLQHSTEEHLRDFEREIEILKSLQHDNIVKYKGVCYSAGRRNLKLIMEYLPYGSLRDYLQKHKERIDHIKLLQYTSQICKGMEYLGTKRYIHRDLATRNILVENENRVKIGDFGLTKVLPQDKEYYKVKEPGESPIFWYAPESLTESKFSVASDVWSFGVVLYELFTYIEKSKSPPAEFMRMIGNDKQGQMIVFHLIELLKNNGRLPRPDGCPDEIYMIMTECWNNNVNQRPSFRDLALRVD
T2 sequence (P52333 822-1111 limits assumed): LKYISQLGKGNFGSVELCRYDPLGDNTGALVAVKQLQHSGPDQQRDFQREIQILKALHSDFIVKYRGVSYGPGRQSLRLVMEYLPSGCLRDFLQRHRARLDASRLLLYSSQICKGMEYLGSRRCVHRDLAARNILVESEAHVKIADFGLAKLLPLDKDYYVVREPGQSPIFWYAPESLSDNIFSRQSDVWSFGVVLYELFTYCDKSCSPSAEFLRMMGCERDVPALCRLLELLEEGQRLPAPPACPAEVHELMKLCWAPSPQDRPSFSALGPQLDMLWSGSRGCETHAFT

Compound | IC50 [1] [nM] | IC50 [2] [nM] | IC50 [3] [nM] | IC50 [4] [nM]
CC(=O)Nc1cccc(Nc2ncc(C(N)=O)c(NCC3CCCNC3)n2)c1 (stereo not shown) [Example 116, 2-(3-acetamidophenylamino)-4-(piperidin-3-ylmethylamino)pyrimidine-5-carboxamide] | 10 to 100 | 10 to 100 | 10 to 100 | 10 to 100
CC(=O)Nc1cccc(Nc2ncc(C(N)=O)c(NCCC(C)C)n2)c1 [Example 251, 2-(3-acetamidophenylamino)-4-(isopentylamino)pyrimidine-5-carboxamide] | 10 to 100 | 1 to 10 | 1 to 10 | 10 to 100
CC(=O)Nc1cc(Nc2ncc(C(N)=O)c(Nc3cccc4nsnc34)n2)ccc1OCCN(C)C [Example 230, 2-(3-acetamido-4-(2-(dimethylamino)ethoxy)phenylamino)-4-(benzo[c][1,2,5]thiadiazo-4-ylamino)pyrimidine-5-carboxamide] | 10 to 100 | 1 to 10 | 10 to 100 | 1 to 10
CC(=O)Nc1cccc(Nc2ncc(C(N)=O)c(Nc3cccc4c3ccn4C)n2)c1 [Example 184, 2-(3-acetamidophenylamino)-4-(1-methyl-1H-indol-4-ylamino)pyrimidine-5-carboxamide] | 1 to 10 | 1 to 10 | 1 to 10 | 1 to 10
CC(=O)Nc1cccc(Nc2ncc(C(N)=O)c(NCc3ccncc3)n2)c1 [Example 189, 2-(3-acetamidophenylamino)-4-(pyridin-4-ylmethylamino)pyrimidine-5-carboxamide] | 100 to 1000 | 10 to 100 | 10 to 100 | 100 to 1000
C[C@@H](Nc1nc(Nc2cccc(N(C)C(=O)N3CCCC3)c2)ncc1C(N)=O)c1ccccc1 [Example 122, (R)-2-(3-(N-methylpyrrolidine-1-carboxamido)phenylamino)-4-(1-phenylethylamino)pyrimidine-5-carboxamide] | 100 to 1000 | 1 to 10 | 100 to 1000 | 10 to 100
CC(=O)Nc1cc(Nc2ncc(C(N)=O)c(Nc3cccc4nn(C)cc34)n2)ccc1OCCN(C)C [Example 229, 2-(3-acetamido-4-(2-(dimethylamino)ethoxy)phenylamino)-4-(2-methyl-2H-indazol-4-ylamino)pyrimidine-5-carboxamide] | > 1000 | 10 to 100 | 100 to 1000 | 10 to 100
CC(=O)Nc1cccc(Nc2ncc(C(N)=O)c(Nc3ccc(N4CCOCC4)c(F)c3)n2)c1 [Example 198] | > 1000 | 10 to 100 | 10 to 100 | 10 to 100
CNC(=O)c1cnc(Nc2cccc(NC(=O)COC)c2)nc1NC1Cc2ccccc2C1 [Example 114, 4-(2,3-dihydro-1H-inden-2-ylamino)-2-(3-(2-methoxyacetamido)phenylamino)-N-methylpyrimidine-5-carboxamide] | 10 to 100 | 10 to 100 | 10 to 100 | 10 to 100
CC(=O)Nc1cccc(Nc2ncc(C(N)=O)c(NCc3cccc(Cl)c3)n2)c1 [Example 101, 2-(3-acetamidophenylamino)-4-(3-chlorobenzylamino)pyrimidine-5-carboxamide] | 10 to 100 | 1 to 10 | 10 to 100 | 1 to 10
C[C@@H](Nc1nc(Nc2ccc(Cl)c(NC(=O)N3CCCCC3)c2)ncc1C(N)=O)c1ccccc1 [Example 205, (R)-2-(4-chloro-3-(piperidine-1-carboxamido)phenylamino)-4-(1-phenylethylamino)pyrimidine-5-carboxamide] | > 1000 | 10 to 100 | 100 to 1000 | 100 to 1000
NC(=O)c1cnc(Nc2ccc(Cl)c(NC(=O)N3CCCC3)c2)nc1NCC1CC1 [Example 174, 2-(4-chloro-3-(pyrrolidine-1-carboxamido)phenylamino)-4-(cyclopropylmethylamino)pyrimidine-5-carboxamide] | 10 to 100 | 10 to 100 | 10 to 100 | 100 to 1000
CC(=O)Nc1cccc(Nc2ncc(C(N)=O)c(NCc3cccnc3)n2)c1 [Example 188, 2-(3-acetamidophenylamino)-4-(pyridin-3-ylmethylamino)pyrimidine-5-carboxamide] | 100 to 1000 | 1 to 10 | 10 to 100 | 10 to 100
CN(C(=O)N1CCCC1)c1cc(Nc2ncc(C(N)=O)c(NCc3cccc(F)c3)n2)ccc1Cl [Example 242, 2-(4-chloro-3-(N-methylpyrrolidine-1-carboxamido)phenylamino)-4-(3-fluorobenzylamino)pyrimidine-5-carboxamide] | > 1000 | 100 to 1000 | > 1000 | > 1000

Second part, the compound after the results:

IC50 [1] [nM] | IC50 [2] [nM] | IC50 [3] [nM] | IC50 [4] [nM] | Compound
100 to 1000 | 10 to 100 | 100 to 1000 | 100 to 1000 | CC(C)CNc1cc(Nc2cccc(NC(=O)N3CCCC3)c2)ncc1C(N)=O [Example 324, 4-(isobutylamino)-6-(3-(pyrrolidine-1-carboxamido)phenylamino)nicotinamide]
100 to 1000 | 1 to 10 | 10 to 100 | 10 to 100 | C[C@@H](Nc1nc(Nc2cccc(NC(=O)N3CCCCC3)c2)ncc1C(N)=O)c1ccccc1 [Example 220, (R)-4-(1-phenylethylamino)-2-(3-(piperidine-1-carboxamido)phenylamino)pyrimidine-5-carboxamide]
100 to 1000 | 1 to 10 | 10 to 100 | 10 to 100 | C[C@@H](Nc1nc(Nc2cccc(NC(=O)N3CCCC3)c2)ncc1C(N)=O)c1ccccc1 [Example 105, (R)-4-(1-phenylethylamino)-2-(3-(pyrrolidine-1-carboxamido)phenylamino)pyrimidine-5-carboxamide]
> 1000 | 100 to 1000 | 100 to 1000 | > 1000 | CC(=O)Nc1cccc(Nc2cc(NC3Cc4ccccc4C3)c(C(N)=O)cn2)c1 [Example 333, 6-(3-acetamidophenylamino)-4-(2,3-dihydro-1H-inden-2-ylamino)nicotinamide]
> 1000 | 10 to 100 | 100 to 1000 | 100 to 1000 | NC(=O)c1cnc(Nc2ccc(Cl)c(NC(=O)N3CCCC3)c2)nc1NCc1cccc(Cl)c1 [Example 173, 2-(4-chloro-3-(pyrrolidine-1-carboxamido)phenylamino)-4-(3-chlorobenzylamino)pyrimidine-5-carboxamide]
10 to 100 | < 1 | 10 to 100 | 1 to 10 | C[C@@H](Nc1nc(Nc2cccc(NC(=O)N3CCOCC3)c2)ncc1C(N)=O)c1ccccc1 [Example 255, (R)—N-(3-(5-carbamoyl-4-(1-phenylethylamino)pyrimidin-2-ylamino)phenyl)morpholine-4-carboxamide]
100 to 1000 | 10 to 100 | 10 to 100 | > 1000 | CC(=O)Nc1cccc(Nc2cc(N[C@H]3CCc4ccccc43)c(C(N)=O)cn2)c1 [Example 335, (S)-6-(3-acetamidophenylamino)-4-(2,3-dihydro-1H-inden-1-ylamino)nicotinamide]
100 to 1000 | 1 to 10 | 10 to 100 | 100 to 1000 | NC(=O)c1cnc(Nc2cccc(NC(=O)N3CCCC3)c2)cc1NCc1ccccc1 [Example 326, 4-(benzylamino)-6-(3-(pyrrolidine-1-carboxamido)phenylamino)nicotinamide]
